In patent publication US5344843A, “Cat-1 inhibitors, pharmaceutical compositions and methods of use” (Hoffman-La Roche Inc., priority 1992, dated 1994):
Where a name gives a salt, the structure may show the parent alone.

Legend:
[1] = molecular target: T1, CAT-1 (carnitine acyltransferase 1) (Rattus norvegicus, UniProt Q63704); experiment: Primary Screen--Inhibition of CAT-1 in isolated mitochondria; format: biochemical; settings: rat heart mitochondria, reduction of palmitoyl carnitine formation by 50%; read-out: Primary Screen IC50
T1 construct: This preparation is used as the isolated mitochondrial preparation; from tissue; host or cells: rat heart (atria removed), isolated mitochondria
T1 sequence (Q63704 1-772): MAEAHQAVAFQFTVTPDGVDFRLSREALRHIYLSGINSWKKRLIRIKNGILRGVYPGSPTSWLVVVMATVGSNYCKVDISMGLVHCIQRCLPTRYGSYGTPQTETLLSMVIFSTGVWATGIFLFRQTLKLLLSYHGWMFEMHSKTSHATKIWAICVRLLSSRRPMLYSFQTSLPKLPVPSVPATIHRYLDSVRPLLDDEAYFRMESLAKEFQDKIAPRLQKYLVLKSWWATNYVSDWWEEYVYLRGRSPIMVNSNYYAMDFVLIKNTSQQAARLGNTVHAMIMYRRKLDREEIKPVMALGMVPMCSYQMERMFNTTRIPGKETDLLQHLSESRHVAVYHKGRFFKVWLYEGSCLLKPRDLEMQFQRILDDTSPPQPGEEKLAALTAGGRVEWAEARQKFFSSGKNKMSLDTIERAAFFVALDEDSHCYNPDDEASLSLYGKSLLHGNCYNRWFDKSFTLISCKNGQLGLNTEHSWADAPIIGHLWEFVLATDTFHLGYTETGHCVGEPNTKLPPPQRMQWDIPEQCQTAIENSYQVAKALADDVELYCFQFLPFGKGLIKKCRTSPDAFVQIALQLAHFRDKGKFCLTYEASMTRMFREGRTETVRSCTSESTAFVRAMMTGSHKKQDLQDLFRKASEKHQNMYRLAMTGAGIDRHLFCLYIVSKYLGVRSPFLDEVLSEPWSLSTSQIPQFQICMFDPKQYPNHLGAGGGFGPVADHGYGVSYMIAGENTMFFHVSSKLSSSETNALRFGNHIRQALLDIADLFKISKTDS
Method: Primary Screen--Inhibitors of CAT-1 in 1Mitochondria
(a). Preparation of Mitochondria
The heart is rapidly removed from an anesthetized rat (sodium pentabarbitol) and placed in ice-cold homogenization buffer (sucrose, 250 mM; Tris, 10 mM; EDTA, 1 mM; BSA, 0.01%; pH=7.4). The atria and extraneous tissue are removed and the remainder is chopped with scissors. The pieces are rinsed in homogenization buffer before being homogenized in 10 mL of the same buffer for 5-7 seconds. The homogenate is then diluted with homogenization buffer (40 total volume) and centrifuged at 200 g for 20 minutes. The supernatant is withdrawn and centrifuged at 7000 g for 20 minutes and the resulting pellet is isolated, resuspended in 40 mL of homogenization buffer and centrifuged once more at 7000 g for 20 minutes. The isolated pellet is resuspended in 10 mL of homogenization buffer and stored at 4° C. until use. This preparation is used as the isolated mitochondrial preparation.
(b). Inhibition of CAT-1 assay
Isolated mitochondria (20 μL) are incubated with 60 μL of Tris/sucrose buffer (sucrose, 500 mM; Tris, 20 mM; KCl, 100 mM; EDTA, 2 mM; pH=7.0 plus 83 μM palmitoyl CoA, and BSA, 0.8 mg/mL and 10^-4 to 10^-10 M of the drug to be tested. After 10 minutes at 30° C., the reaction is started by addition of 10 μL of ^3 H-carnitine (final concentration=250 μM). After 5 minutes, the reaction is terminated by the addition of ice cold 70% perchloric acid (PCA). The precipitated solids so formed, containing the insoluble product of the enzyme palmitoyl carnitine, are captured on filter paper. The filter paper is washed with 7% PCA, then dried and placed in scintillation vials with 10 mL of scintillant (Aquasol, New England Nuclear) and counted for radioactivity. The rate of the reaction is assessed by the difference in radioactivity between zero time and five minutes in the absence of test compound. The ability of test compounds at selected concentrations to inhibit CAT-1 is determined by their ability to reduce the formation of the radioactive product. The IC50 of the test compound is the concentration of test compound that reduces the formation of radioactive product by 50%.

[2] = molecular target: T1, CAT-1 (carnitine acyltransferase 1); experiment: Secondary Screen--Inhibition of CAT-1 in intact cardiac myocytes (hypoxia-induced increase in long-chain acylcarnitines); format: cell-based; parameters: inhibition: dose or concentration left out as unconfirmed; settings: isolated rat cardiac myocytes; for IC50: 50% inhibition of hypoxia-induced increase in long-chain acylcarnitines
Method: Secondary Screen--Inhibition of CAT-1 in intact Cardiac Myocytes
(a) Preparation of Isolated Rat Cardiac Myocytes
Four hearts are excised from anesthetized rats and perfused retrogradly via the Langendorf technique. Each heart receives 100 mL of Krebs (NaCl, 118.4 mM; KCL, 4.6 mM; NaH2 PO4, 1.0 mM; NaHCO3, 20 mM; MgSO4, 2 mM; CaCl2, 50 μM; glucose, 11.0 mM), 100 mL of Ca++ free Krebs and finally 100 mL of 0.5% collagenase (Boehringer Mannhelm, type 1) in Hepes (NaCl, 115 mM; KCl, 5 mM; sucrose, 35 mM; glucose, 10 mM; Hepes, 10 mM; taurine, 4 mM; MgSO4, 2 mM; CaCl2, 50 μM). After these perfusions, the hearts are chopped into pieces, approx. 0.5 cm×0.5 cm and placed in four 125 mL plastic bottles along with 25 mL of collagenase/Hepes situated in a water bath maintained at 35° C. The pieces of cardiac tissue in each bottle are agitated by using a Harvard respirator connected to four glass syringes, which sucks the tissue up and down each tube during each respiratory cycle. After fifteen minutes, the collagenase/Hepes is removed and replaced with fresh collegenase/Hepes and the process repeated. The collegenase/Hepes from the subsequent fifteen minute harvests are centrifuged at 500 g to pellet the cells which are then resuspended in Hepes buffer. After six harvests, all cells are pelleted, resuspended in 2×26.5 mL of Hepes plus BSA (350 mg) and layered on top of 2×percoll gradients (21.15 mL percoll, 2.35 mL NaCl, 6 drops acetic acid). This is centfifuged at 3000 g for eight minutes forming a percoll gradient which results in viable cells being separated from damaged cells. The viable cells are removed, washed with Hepes and finally resuspended in 25 mL of Hepes.
The isolated cardiac myocytes (2 mL; approximately 1×10^6 cells) are separated into six glass pods. Into four of these are placed selected concentrations of the compound to be tested, and the cells are incubated for twenty minutes, after which the pods are centrifuged at 300 g for three minutes. 300 μL of normoxic Hepes is placed in one of the pods not containing compound and then all pods are placed in a hypoxic chamber (N2 atmosphere). Oxygen is fed via small bore steel tubes to the pod containing the normoxic buffer, while the other five pods receive pre-purified argon (99.998% pure). After two minutes, Hepes (pre-gassed with argon for at least twelve hours) is fed into the five hypoxic pods. This hypoxic environment (pO2 <10 mm Hg) is maintained for twenty minutes, after which the cells and pods are frozen by contact with a metal block precooled in liquid N2. The pods are then removed from the chamber and stored at -70° C. The carnitine assay is performed, as described below in (c), to determine the amount of long-chain acylcarnitine in the cells from the normoxic, hypoxic and hypoxic plus compound samples. […] Thus the IC50 in this screen is the concentration of test compound which produces a 50% inhibition of the hypoxia-induced increase in long-chain acylcarnitines.
(c) Long-chain Acylcarnitine Assay.
The frozen cell samples are thawed, mixed and homogenized with 40 μL of 70% PCA. The homogenate is transferred to eppendorf tubes while the homogenization tube and the glass pod is rinsed with 500 μL of 7% PCA, with the rinse being added to the eppendorf tube. This is then centrifuged at 1000 g for two minutes to pellet the precipitate (containing the long-chain acylcarnitine) and the supernatant is discarded. The pellet is washed twice with 500 μL of 7% PCA, the supernatants being discarded. The pellet is then hydrolyzed (to separate the acyl unit from carnitine to yield free carnitine) by the addition of 200 μL of aleionized H2 O and 50 μL of 5N KOH and incubated at 70° C. for ninety minutes.

IC50 [1] [nM] | IC50 [2] [nM] | inhibition ([2]; hypoxia) [%] | inhibition at 25 µM ([2]; @ 25 μM, hypoxia) [%] | SMILES
400 | 7500 | – | – | Cc1cc(C(=O)C(=O)O)ccc1OCCOc1ccc2ccccc2c1 [Example 181, 3-methyl-4-[2-(2-naphthalenyloxy)ethoxy]-alpha-oxobenzeneacetic acid]
400 | 20000 | – | – | O=C(O)C(=O)c1ccc(OCCCCOc2ccccc2)cc1 [Example 71, alpha-oxo-4-[[(4-phenoxy)butyl]oxy]benzeneacetic acid]
40 | 300 | – | – | CN(C)CCOC(=O)C(=O)c1ccc(OCCOc2ccc3ccccc3c2)s1 [Example 6, 5-[[2-(2-naphthalenyloxy)ethyl]oxy]-alpha-oxo-2-thiopheneacetic acid 2-(dimethylamino)ethyl ester]
4000 | – | 94 | – | O=C(O)C(=O)c1ccc(OCCCCCCc2cccc(O)c2O)cc1 [Example 260, 4-[6-(2,3-dihydroxyphenyl)hexyloxy]-alpha-oxobenzeneacetic acid]
9000 | 1000 | – | – | CC(C)c1cccc(-c2ccc(F)cc2)c1/C=C/COc1ccc(C(=O)C(=O)O)cc1 [Example 229, (E)-4-[3-[4'-fluoro-3-(1-methylethyl)[1,1'-biphenyl]-2-yl]-2-propenyloxy]-alpha-oxobenzeneacetic acid]
580 | 2000 | – | – | O=C(O)/C(=N\O)c1ccc(OCCOc2ccc3ccccc3c2)cc1 [Example 301, (Z)-alpha-(hydroxyimino)-4-[2-(2-naphthalenyloxy)ethoxy]benzeneacetic acid]
90 | 1000 | – | – | CN(C)CCOC(=O)C(=O)c1ccc(OCCOc2ccc3ccccc3c2)cc1 [Example 106, 4-[[2-(2-naphthalenyloxy)ethyl]oxy]-alpha-oxobenzeneacetic acid 2-(dimethylamino)ethyl ester]
2000 | 37000 | – | – | O=C(O)C(=O)c1ccc(OCCOc2ccccc2)cc1 [Example 37, alpha-oxo-4-[[2-(phenoxy)ethyl]oxy]benzeneacetic acid]
900 | 50000 | – | – | O=C(O)C(=O)c1ccc(OCCOC2CCCCCCC2)cc1 [Example 101, 4-[[2-(cyclooctyloxy)ethyl]oxy]-alpha-oxobenzeneacetic acid]
160 | 6000 | – | – | O=C(O)C(=O)c1ccc(OCCOc2ccc3ccccc3c2)cc1F [Example 197, 2-fluoro-4-[2-(2-naphthalenyloxy)ethoxy]-alpha-oxobenzeneacetic acid]
900 | 20000 | – | – | O=C(O)C(=O)c1ccc(OCCOC2CCCCC2)cc1 [Example 99, 4-[[2-(cyclohexyloxy)ethyl]oxy]-alpha-oxobenzeneacetic acid]
50 | 300 | – | – | O=C(O)C(=O)c1ccc(OCC(=O)c2ccc3ccccc3c2)cc1 [Example 157, 4-[2-(2-naphthalenyl)-2-oxoethoxy]-alpha-oxobenzeneacetic acid]
2000 | 12000 | – | – | O=C(O)C(=O)c1ccc(OCCCCc2ccccc2)cc1 [Example 25, 4-[(4-phenybutyl)oxy]-alpha-oxobenzeneacetic acid]
300 | 17500 | – | – | O=C(O)C(=O)c1ccc(OCCSc2ccccc2)cc1 [Example 82, alpha-oxo-4-[[2-(phenylthio)ethyl]oxy]benzeneacetic acid]
80 | 3000 | – | – | O=C(O)C(=O)c1ccc(OCCOc2ccc3ccccc3c2)cc1 [Example 86, 4-[[2-(2-naphthalenyloxy)ethyl]oxy]-alpha-oxobenzeneacetic acid]
2700 | 12000 | – | – | O=C(O)C(=O)c1ccc(CCCOc2ccc3ccccc3c2)cc1 [Example 143, 4-[3-(2-naphthalenyloxy)propyl]-alpha-oxobenzeneacetic acid]
800 | 300 | – | – | O=C(O)C(=O)c1ccc(SCCOC2CCCCCCC2)cc1 [Example 173, 4-[[2-(cyclooctyloxy)ethyl]thio]-alpha-oxobenzeneacetic acid]
7200 | – | – | 35 | O=C(O)C(=O)c1c(F)c(F)c(OCCOc2ccc3ccccc3c2)c(F)c1F [Example 205, 2,3,5,6-tetrafluoro-4-[2-(2-naphthalenyloxy)ethoxy]-alpha-oxobenzeneaceticacid]
1800 | 8000 | – | – | O=C(O)C(=O)c1ccc(OCCOC2CCCCCCC2)s1 [Example 9, 5-[[2-(cyclooctyloxy)ethyl]oxy]-alpha-oxo-2-thiopheneacetic acid]
1750 | 3800 | – | – | O=C(O)C(F)(F)c1ccc(OCCOc2ccc3ccccc3c2)cc1 [Example 13, alpha, alpha-difluoro-4-[[2-(2-naphthalenyloxy)ethyl]oxy]benzeneacetic acid]
170 | 3500 | – | – | O=C(O)C(=O)c1ccc(OCCCCOc2ccc3ccccc3c2)cc1 [Example 88, 4-[[4-(2-naphthalenyloxy)butyl]oxy]-alpha-oxobenzeneacetic acid]
400 | 30000 | – | – | O=C(COc1ccc(C(=O)C(=O)O)cc1)NC1CCCCCCC1 [Example 247, 4-[2-(cyclooctylamino)-2-oxoethoxy]-alpha-oxobenzeneacetic acid]
270 | 28000 | – | – | O=C(O)C(=O)c1ccc(OCCSc2ccc3ccccc3c2)cc1 [Example 90, 4-[[2-(2-naphthalenylthio)ethyl]oxy]-alpha-oxobenzeneacetic acid]
170 | 600 | – | – | O=C(O)C(=O)c1ccc(OCCOc2ccc3ccccc3c2)c(F)c1 [Example 199, 3-fluoro-4-[2-(2-naphthalenyloxy)ethoxy]-alpha-oxobenzeneacetic acid]
300 | 1200 | – | – | CC(C)(C)c1ccc(C(=O)COc2ccc(C(=O)C(=O)O)cc2)cc1 [Example 286]
80 | 4000 | – | – | O=C(O)C(=O)c1ccc(OCCOc2cccc3ccccc23)cc1 [Example 84, 4-[[2-(1-naphthalenyloxy)ethyl]oxy]-alpha-oxobenzeneacetic acid]
400 | 25000 | – | – | O=C(O)C(=O)c1ccc(C(=O)NCCOc2ccc3ccccc3c2)cc1 [Example 177, 4-[[[2-(2-naphthalenyloxy)ethyl]amino]carbonyl]-alpha-oxobenzeneacetic acid]
1000 | – | 99 | – | O=C(O)C(=O)c1ccc(OCCCn2c(=O)c3ccccc3c3ccccc32)cc1 [Example 262, 4-[3-(5,6-dihydro-6-oxo-5-phenanthridinyl)propoxy]-alpha-oxobenzeneacetic acid]

SMILES | IC50 [1] [nM] | IC50 [2] [nM] | inhibition ([2]; hypoxia) [%] | inhibition at 25 µM ([2]; @ 25 μM, hypoxia) [%]
CCC(C)(C)C(=O)Oc1cccc2ccc(OCCOc3ccc(C(=O)C(=O)O)cc3)cc12 [Example 134, 4-[[2-[8-(2,2-dimethyl-1-oxobutoxy)-2-naphthalenyloxy]ethyl]oxy]-alpha-oxobenzeneacetic acid] | 600 | 400 | – | –
CCC(C)(C)C(=O)OCc1cccc(C)c1/C=C\COc1ccc(C(=O)C(=O)O)cc1 [Example 215, (Z)-4-[3-[2-(2,2-dimethyl-1-oxobutoxy)methyl]-6-methylphenyl]-2-propenyloxy]-alpha-oxobenzeneacetic acid (1:1) morpholine salt] | 2000 | 9000 | – | –
CCC(C)(C)C(=O)OCc1cccc(C)c1CCCOc1ccc(C(=O)C(=O)O)cc1 [Example 223, 4-[3-[2-[(2,2-dimethyl-1-oxobutoxy)methyl]-6-methylphenyl]propoxy]-alpha-oxobenzeneacetic acid] | 1100 | 90 | – | –
CCC(C)(C)C(=O)OCc1cccc(C)c1OCCOc1ccc(/C(=N/OC)C(=O)O)cc1 [Example 304, (Z)-4-[2-[2-[(2,2-Dimethyl-1-oxobutoxy)methyl]-6-methylphenyloxy]ethoxy]-alpha-methoxyiminobenzeneacetic acid] | 3300 | 5000 | – | –
CCC(C)(C)C(=O)OCc1cccc(C)c1C#CCOc1ccc(C(=O)C(=O)O)cc1 [Example 212, 4-[3-[2-[(2,2-dimethyl-1-oxobutoxy)methyl]-6-methylphenyl]-2-propynyloxy]-alpha-oxobenzeneacetic acid (1:1) morpholine salt] | 470 | – | 47 | –
CCC(C)(C)C(=O)OCc1cccc(C)c1OCCOc1ccc(C(=O)C(=O)O)cc1 [Example 136, 4-[[2-[2-[(2,2-Dimethyl-1-oxobutoxy)methyl]-6-methylphenoxy]ethyl]oxy]-alpha-oxobenzeneacetic acid (2:1) hydrate] | 7700 | 900 | – | –
CCC(C)(C)C(=O)OCc1cccc(C)c1OCCSc1ccc(C(=O)C(=O)O)cc1 [Example 175, 4-[[2-[2-[(2,2-dimethyl-1-oxobutoxy)methyl]-6-methylphenoxy]ethyl]thio]-alpha-oxobenzeneacetic acid] | 500 | 200 | – | –
